Measured values taken from PubChem BioAssay (NCI).
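Each compound was tested at five concentrations against cells in 96-well plates for 48 hours. TGI: concentration producing complete growth inhibition.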 Where a SMILES comes first, the peptide text is derived from it. The star is where a group is joined. Cbz = O=C(OCc1ccccc1)*; Boc = CC(C)(C)OC(=O)*; OBn = c1ccc(CO*)cc1

Key:
Assay in all cases: inhibition of tumour cell growth, NCI panel, 48 h
[1] = tested on: SN12C renal
[2] = tested on: KM20L2 colon
[3] = tested on: DMS 273 small cell lung
[4] = tested on: DLD-1 colon
[5] = tested on: DMS 114 small cell lung
[6] = tested on: NCI-H522 lung
[7] = tested on: NCI-H226 lung
[8] = tested on: UACC-62 melanoma
[9] = tested on: SW-620 colon
[10] = tested on: SNB-78 CNS
[11] = tested on: LXFL 529 NSCLC
[12] = tested on: SR leukemia
[13] = tested on: M19-MEL melanoma
[14] = tested on: XF 498 CNS
[15] = tested on: OVCAR-4 ovarian
[16] = tested on: MCF7 breast

Compound	TGI [1] [µM]	TGI [2] [µM]	TGI [3] [µM]	TGI [4] [µM]	TGI [5] [µM]	TGI [6] [µM]	TGI [7] [µM]	TGI [8] [µM]	TGI [9] [µM]	TGI [10] [µM]	TGI [11] [µM]	TGI [12] [µM]	TGI [13] [µM]	TGI [14] [µM]	TGI [15] [µM]	TGI [16] [µM]
O=C1NCC2=C1CCC1c3ccccc3CCN21 (centres undefined)	> 100	> 100	> 100	> 100	> 100	> 100	> 100	> 100	> 100	> 100	> 100	> 100	> 100	> 100	–	–
CC(C)c1cc(C(C)C)c(P2(=O)CC3C(Cl)(Cl)C3(C)C2)c(C(C)C)c1 (centres undefined)	29.3	–	–	–	–	4	34.3	21.3	26.4	–	–	3.75	–	–	11.8	19.5
O=C(O)c1ccccc1/C=C1\Cc2ccc3c(c2C1=O)CCCC3	> 100	–	–	–	–	65.9	82.7	46.5	> 100	–	–	61	–	–	> 100	> 100
COC(=O)C1(Cc2ccccc2C)Cc2ccc(C)cc2C1=O (centres undefined)	57.4	–	–	–	–	65.9	> 100	> 100	> 100	–	–	33.1	–	–	> 100	41
CSC(=S)Nc1cc(C)ccn1	> 100	–	–	–	–	> 100	> 100	> 100	> 100	–	–	> 100	–	–	> 100	> 100
Cc1c(O)c(OC2OC(CO)C(O)C(O)C2O)cc2c1CC[C@@H]1C2(C)C(=O)C[C@]2(C)[C@@H]([C@@](C)(O)C(O)CCC(C)(C)O)[C@H](O)C[C@@]12C (some centres undefined)	> 100	–	–	–	–	> 100	> 100	> 100	> 100	–	–	> 100	–	–	> 100	> 100
CCC1c2[nH]c3ccccc3c2C[C@H]2C(=O)NC(Cc3ccccc3)C(=O)N12 (some centres undefined)	79.9	–	–	–	–	46.6	74.9	38.8	> 100	–	–	53.8	–	–	> 100	> 100
COC(=O)C(CCCCNC(=O)OCc1ccccc1)NC(=O)C(CCC(=O)OCc1ccccc1)NC(=O)OC(C)(C)C (centres undefined) (Boc-Glu(OBn)-Lys(Cbz)-OMe; configuration not given here)	> 100	–	–	–	–	> 100	> 100	> 100	> 100	–	–	> 100	–	–	> 100	> 100
[N-]=[N+]=NC1=C(N=[N+]=[N-])c2cccc3cccc(c23)C1=O	> 100	–	–	–	–	> 100	> 100	> 100	> 100	–	–	> 100	–	–	> 100	> 100
CC(=O)/C(=C\n1c(=S)[nH]c2ccc([N+](=O)[O-])cc21)C(=O)Nc1ccccc1C	> 100	–	–	–	–	> 100	> 100	> 100	> 100	–	–	> 100	–	–	> 100	> 100
O=C1C2=Cc3ccccc3CCN2c2ccc([N+](=O)[O-])cc21	> 100	–	–	–	–	> 100	> 100	> 100	> 100	–	–	> 100	–	–	> 100	> 100
CCCNc1c(Cl)cc(Cl)c2[nH]c3ccccc3c(=O)c12	> 100	–	–	–	–	> 100	> 100	> 100	> 100	–	–	> 100	–	–	> 100	> 100
Cc1ccc2c(c1)C(=O)c1ccc(C)nc1C2=O	59.2	–	–	–	–	82.1	> 100	48.9	> 100	–	–	> 100	–	–	83.7	> 100
COc1ccc(N=C/C=C/C(=C/COC(C)=O)OC(C)=O)cc1	74.9	–	–	–	–	30.4	> 100	> 100	32.6	–	–	> 100	–	–	93.8	> 100
CC1(C)CC(C2CC(C)(C)CC(C)(C)[C@H]2O)[C@@H](O)C(C)(C)C1 (some centres undefined)	> 100	> 100	> 100	–	> 100	> 100	> 100	> 100	> 100	–	> 100	> 100	> 100	> 100	–	–
O=Cc1cc(O)ccc1Br	> 100	–	–	–	–	> 94.3	> 91.7	50.4	> 100	–	–	17.3	–	–	> 65.7	> 100
COc1cc(O)c2c(=O)cc(C3(OC(C)=O)C=CC(OC4OC(CO)C(O)C(O)C4O)C=C3)oc2c1 (centres undefined)	> 100	–	–	–	–	> 100	> 100	> 100	> 100	–	–	> 100	–	–	> 100	> 100
O=C1NC(c2ccccc2)C1N(Cc1ccccc1)Cc1ccccc1 (centres undefined)	> 100	–	–	–	–	> 100	> 100	> 100	> 100	–	–	> 100	–	–	> 100	> 100
COc1ccc(C(c2ccccc2)N2C(=O)CCC2C(=O)O)cc1OC (centres undefined)	> 100	–	–	–	–	> 100	> 100	> 100	> 100	–	–	> 100	–	–	> 100	> 100
C=C1C(=O)OC2C3C(=C)[C@@H](OC(C)=O)CC3C(C)=CC(OC(=O)C(C)(O)C(C)OC(C)=O)[C@@H]12 (some centres undefined)	27.8	–	–	–	–	3.21	48.4	25.8	10.7	–	–	68.9	–	–	23.3	22.9
COc1ccc2c(c1)CC[C@@H]1C2CC[C@]2(C)C(=O)N(C)C(=O)CC12 (some centres undefined)	> 100	–	–	–	–	> 100	> 100	> 100	> 100	–	–	> 100	–	–	> 100	> 100
COC(=O)/C=C1/OC(c2ccccc2)=CC1=O	38.9	–	–	–	–	39.3	67.3	40	32.3	–	–	> 60.8	–	–	31.2	25.4
CCCN=C1S/C(=C/c2ccc(OC)c(OC)c2)C(=O)N1c1ccccc1	> 100	–	–	–	–	> 100	95	> 100	> 100	–	–	> 100	–	–	80.6	> 100
COC(=O)[C@@H](COC(=O)/C=C/c1ccc(OC(C)=O)c(OC(C)=O)c1)NC(=O)/C=C/c1ccc(OC(C)=O)c(OC(C)=O)c1	46.7	–	–	–	–	35.1	> 100	45.9	> 100	–	–	> 100	–	–	57.8	> 100
Cc1cc2c(cc1-c1cc3c(cc1C)C(C(C)C)=C(O)C(=O)/C3=C\Nc1cccc3c(N)cccc13)/C(=C/Nc1cccc3c(N)cccc13)C(=O)C(O)=C2C(C)C	> 100	–	–	–	–	> 100	> 100	> 100	> 100	–	–	> 100	–	–	> 100	> 100
Nc1nc(Cl)c(N)c(NCC2(CO)CC(O)C2)n1 (centres undefined)	> 100	–	–	–	–	> 100	> 100	> 100	> 100	–	–	> 100	–	–	> 100	> 100
O=C1c2cc([N+](=O)[O-])cnc2S(=O)(=O)N1c1ccc(Oc2ccccc2)cc1	> 100	–	–	–	–	> 100	> 100	> 100	> 100	–	–	> 100	–	–	> 100	> 100
N#Cc1c(-c2ccccc2)cc(Nc2ccc(F)cc2)n2c1nc1ccccc12	6.1	–	–	–	–	5.83	> 24	14.8	> 100	–	–	> 100	–	–	> 100	5.97
